Data from US6737383B1, “Herbicidal oxadiazolidines” (priority 1999, dated 2004).

Assays:
spring barley [1] = assay: Test E spring barley; format: in vivo, Hordeum vulgare; conditions: Preemergence; for Spring Barley plant response rating (0 to 100 scale): Rate 250 g/ha
field bindweed = assay: Test C postemergence field bindweed; format: in vivo, Convolvulus arvensis; conditions: 0 to 100 scale, 0 no effect, 100 complete control
Procedure: (§1) Compounds evaluated in this test were formulated in a non-phytotoxic solvent mixture which included a surfactant and applied to plants that were grown for various periods of time before treatment (postemergence application). A mixture of sandy loam soil and greenhouse potting mix in a 60:40 ratio was used for the postemergence test.
(§2) Plantings of these crops and weed species were adjusted to produce plants of appropriate size for the postemergence test. All plant species were grown using normal greenhouse practices. Crop and weed species include arrowleaf sida (Sida rhombifolia), barnyardgrass (Echinochloa crus-galli), cocklebur (Xanthium strumarium), common ragweed (Ambrosia elatior), corn (Zea mays), cotton (Gossypium hirsutum), eastern black nightshade (Solanum ptycanthum), fall panicum (Panicum dichotomiflorum), field bindweed (Convolvulus arvensis), giant foxtail (Setaria faberii), hairy beggarticks (Bidens pilosa), ivyleaf morningglory (Ipomoea hederacea), johnsongrass (Sorghum halepense), ladysthumb smartweed (Polygonum persicaria), lambsquarters (Chenopodium album), large crabgrass (Digitaria sanguinalis), purple nutsedge (Cyperus rotundus), redroot pigweed (Amaranthus retroflexus), soybean (Glycine max), surinam grass (Brachiaria decumbens), velvetleaf (Abutilon theophrasti) and wild poinsettia (Euphorbia heterophylla).
(§3) Treated plants and untreated controls were maintained in a greenhouse for approximately 14, to 21 days, after which all treated plants were compared to untreated controls and visually evaluated. Plant response ratings, summarized in Table C, were based upon a 0 to 100 scale where 0 was no effect and 100 was complete control. A dash response (−) means no test result.

common ragweed = assay: Test C postemergence common ragweed; format: in vivo, Ambrosia elatior; conditions: 0 to 100 scale, 0 no effect, 100 complete control
In short: (§4)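 Foliar postemergence treatment of greenhouse plants grown in 60:40 sandy loam:potting mix; compounds delivered in non-phytotoxic solvent with surfactant. Evaluation is visual, 0–100, after ~14–21 d.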

Italian ryegrass = assay: Test E Italian ryegrass; format: in vivo, Lolium multiflorum; conditions: Postemergence; for Plant response rating, I. Ryegrass: 0 to 100 scale; for I. Ryegrass plant response rating: Rate 250 g/ha, 0 to 100 scale where 0 is no effect and 100 is complete control
Procedure: as §1, with “in the 1- to 4-leaf stage” for “grown for various periods of time before treatment”
(§5) Plantings of these crops and weed species were adjusted to produce plants of appropriate size for the postemergence test. All plant species were grown using normal greenhouse practices. Crop and weed species include annual bluegrass (Poa annua), blackgrass (Alopecurus myosuroides), black nightshade (Solanum nigra), chickweed (Stellaria media), common poppy (Papaver rhoeas), deadnettle (Lamium amplexicaule), downy brome (Bromus tectorum), field violet (Viola arvensis), galium (Galium aparine), green foxtail (Setaria viridis), Italian ryegrass (Lolium multiflorum), jointed goatgrass (Aegilops cylindrica), kochia (Kochia scoparia), lambsquarters (Chenopodium album), littleseed canarygrass (Phalaris minor), rape (Brassica napus), redroot pigweed (Amaranthus retroflexus), Russian thistle (Salsola kali), scentless chamomile (Matricaria inodora), spring barley (Hordeum vulgare), sugar beet (Beta vulgaris), sunflower (Helianthus annuus), ivyleaf speedwell (Veronica hederaefolia), spring wheat (Triticum aestivum), winter wheat (Triticum aestivum), wild buckwheat (Polygonum convolvulus), wild mustard (Sinapis arvensis), wild oat (Avena fatua), windgrass (Apera spica-venti) and winter barley (Hordeum vulgare).
(§6) Treated plants and untreated controls were maintained in a greenhouse for approximately 21 to 28 days, after which all treated plants were compared to untreated controls and visually evaluated. […] A dash response (-) means no test result.

hairy beggarticks = assay: Test C postemergence hairy beggarticks; format: in vivo, Bidens pilosa; conditions: 0 to 100 scale, 0 no effect, 100 complete control
Procedure: as §1, §2, §3

blackgrass = assay: Test E blackgrass; format: in vivo, Alopecurus myosuroides; conditions: Postemergence; for Plant response rating, Blackgrass: 0 to 100 scale; for Blackgrass plant response rating: Rate 250 g/ha, 0 to 100 scale where 0 is no effect and 100 is complete control
Procedure: as §1, with “in the 1- to 4-leaf stage” for “grown for various periods of time before treatment”
as §5, §6

spring barley [2] = assay: Test E spring barley; format: in vivo, Hordeum vulgare; conditions: Postemergence; for Plant response rating, Spring Barley: 0 to 100 scale; for Spring Barley plant response rating: Rate 250 g/ha, 0 to 100 scale where 0 is no effect and 100 is complete control
Procedure: as §1, with “in the 1- to 4-leaf stage” for “grown for various periods of time before treatment”
as §5, §6

sunflower = assay: Test E sunflower; format: in vivo, Helianthus annuus; conditions: Preemergence; for Sunflower plant response rating (0 to 100 scale): Rate 250 g/ha
soybean = assay: Test C postemergence soybean; format: in vivo, Glycine max; conditions: 0 to 100 scale, 0 no effect, 100 complete control
In short: as §4

corn = assay: Test C postemergence corn; format: in vivo, Zea mays; conditions: 0 to 100 scale, 0 no effect, 100 complete control
In short: as §4

galium = assay: Test E galium; format: in vivo, Galium aparine; conditions: Preemergence; for Galium plant response rating (0 to 100 scale): Rate 250 g/ha
rape = assay: Test E rape; format: in vivo, Brassica napus; conditions: Preemergence; for Rape plant response rating (0 to 100 scale): Rate 250 g/ha
dallisgrass = assay: Test D dallisgrass; format: in vivo, Paspalum dilatatum; conditions: Postemergence, 0 to 100 scale
large crabgrass = assay: Test D large crabgrass; format: in vivo, Digitaria sanguinalis; conditions: Postemergence, 0 to 100 scale
purple nutsedge = assay: Test D purple nutsedge; format: in vivo, Cyperus rotundus; conditions: Postemergence, 0 to 100 scale
Green foxtail = assay: Test D green foxtail; format: in vivo; conditions: Rate 250 g/ha; Postemergence; 0 to 100 scale
guineagrass = assay: Test D guineagrass; format: in vivo, Panicum maximum; conditions: Postemergence, 0 to 100 scale
[3] = Rate 125 g/ha, 0 to 100 scale (0 no effect, 100 complete control)
[4] = Rate 16 g/ha, 0 no injury, 100 complete control
[5] = Rate 32 g/ha, 0 no injury, 100 complete control
[6] = Rate 64 g/ha, 0 no injury, 100 complete control
[7] = Rate 125 g/ha, 0 no injury, 100 complete control
[8] = Rate 500 g/ha, 0 to 100 scale where 0 is no effect and 100 is complete control
[9] = Rate 125 g/ha, 0 is no effect, 100 is complete control
[10] = Rate 500 g/ha, 0 is no effect, 100 is complete control

## CC(C)N(C(=O)n1oc(=O)n(C)c1=O)c1ccc(F)cc1 [Compound 138]
Spring barley [1]; [3]
  Plant response rating, Spring Barley: 60
Spring barley [1]
  Spring Barley plant response rating (0 to 100 scale): 90
Field bindweed; Rate 140 g/ha
  Plant response rating Field bindweed: 0
Field bindweed; Rate 280 g/ha
  Plant response rating Field bindweed: 0
Field bindweed; Rate 560 g/ha
  Plant response rating Field bindweed: 0
Field bindweed; Rate 1120 g/ha
  Plant response rating Field bindweed: 50
Common ragweed; Rate 140 g/ha
  Plant response rating Common ragweed: 0
Common ragweed; Rate 280 g/ha
  Plant response rating Common ragweed: 0
Common ragweed; Rate 560 g/ha
  Plant response rating Common ragweed: 0
Italian ryegrass; Rate 125 g/ha
  Plant response rating, I. Ryegrass: 0
Italian ryegrass
  I. Ryegrass plant response rating: 0
Hairy beggarticks; Rate 280 g/ha
  Plant response rating H. beggarticks: 10
Hairy beggarticks; Rate 1120 g/ha
  Plant response rating H. beggarticks: 80
blackgrass; Rate 125 g/ha
  Plant response rating, Blackgrass: 20
blackgrass
  Blackgrass plant response rating: 0
Spring barley [2]; Rate 125 g/ha
  Plant response rating, Spring Barley: 0
Spring barley [2]
  Spring Barley plant response rating: 5
sunflower; [3]
  Plant response rating, Sunflower: 55
sunflower
  Sunflower plant response rating (0 to 100 scale): 60
soybean; Rate 140 g/ha
  Plant response rating, Soybean: 10
soybean; Rate 280 g/ha
  Plant response rating, Soybean: 30
soybean; Rate 560 g/ha
  Plant response rating, Soybean: 30
soybean; Rate 1120 g/ha
  Plant response rating, Soybean: 40
corn; Rate 280 g/ha
  Plant response rating, Corn: 20
corn; Rate 560 g/ha
  Plant response rating, Corn: 50
corn; Rate 1120 g/ha
  Plant response rating, Corn: 60
galium; [3]
  Plant response rating, Galium: 50
galium
  Galium plant response rating (0 to 100 scale): 70
rape; [3]
  Plant response rating, Rape: 30
rape
  Rape plant response rating (0 to 100 scale): 95

## CC(C)N(C(=O)n1oc(=O)n(C2CCCCCC2)c1=O)c1ccc(F)cc1F [Compound 342]
dallisgrass; [4]
  Plant response rating, Dallisgrass: 0
dallisgrass; [5]
  Plant response rating, Dallisgrass: 0
dallisgrass; [6]
  Plant response rating, Dallisgrass: 0
dallisgrass; [7]
  Plant response rating, Dallisgrass: 90
dallisgrass; Rate 250 g/ha
  Plant response rating, Dallisgrass: 100
Large crabgrass; [4]
  Plant response rating, Large crabgrass: 0
Large crabgrass; [5]
  Plant response rating, Large crabgrass: 0
Large crabgrass; [6]
  Plant response rating, Large crabgrass: 40
Large crabgrass; [7]
  Plant response rating, Large crabgrass: 100
Large crabgrass; Rate 250 g/ha
  Plant response rating, Large crabgrass: 100
Purple nutsedge; [4]
  Plant response rating, Purple nutsedge: 0
Purple nutsedge; [5]
  Plant response rating, Purple nutsedge: 0
Purple nutsedge; [6]
  Purple nutsedge plant response rating: 0
Purple nutsedge; [7]
  Purple nutsedge plant response rating: 0
Purple nutsedge; Rate 250 g/ha
  Plant response rating, Purple nutsedge: 0
Green foxtail
  Plant response rating, Green foxtail: 100
guineagrass; [4]
  Plant response rating, Guineagrass: 0
guineagrass; [5]
  Plant response rating, Guineagrass: 0
guineagrass; [6]
  Guineagrass plant response rating: 0
  Plant response rating, Guineagrass: 80
guineagrass; [7]
  Plant response rating, Guineagrass: 50
guineagrass; Rate 250 g/ha
  Plant response rating, Guineagrass: 90

## CC(C)N(C(=O)n1oc(=O)n(C2CC2)c1=O)c1ccc(F)cc1 [Compound 242]
Spring barley [1]; [3]
  Plant response rating, Spring Barley: 60
Spring barley [1]
  Spring Barley plant response rating (0 to 100 scale): 70
Spring barley [1]; [8]
  Plant response rating, Spring Barley: 85
Field bindweed; Rate 140 g/ha
  Plant response rating Field bindweed: 0
Field bindweed; Rate 560 g/ha
  Plant response rating Field bindweed: 0
Field bindweed; Rate 1120 g/ha
  Plant response rating Field bindweed: 0
Common ragweed; Rate 140 g/ha
  Plant response rating Common ragweed: 0
Common ragweed; Rate 280 g/ha
  Plant response rating Common ragweed: 10
Common ragweed; Rate 560 g/ha
  Plant response rating Common ragweed: 80
Common ragweed; Rate 1120 g/ha
  Plant response rating Common ragweed: 80
Italian ryegrass; Rate 62 g/ha
  Plant response rating, I. Ryegrass: 50
Italian ryegrass; [9]
  Plant response rating, I. Ryegrass: 0
Italian ryegrass
  I. Ryegrass plant response rating: 70
Italian ryegrass; [10]
  Plant response rating, I. Ryegrass: 60
Hairy beggarticks; Rate 1120 g/ha
  Plant response rating H. beggarticks: 90
dallisgrass; [4]
  Plant response rating, Dallisgrass: 60
dallisgrass; [5]
  Plant response rating, Dallisgrass: 90
dallisgrass; [6]
  Plant response rating, Dallisgrass: 90
dallisgrass; [7]
  Plant response rating, Dallisgrass: 100
dallisgrass; Rate 250 g/ha
  Plant response rating, Dallisgrass: 100
blackgrass; Rate 62 g/ha
  Plant response rating, Blackgrass: 60
blackgrass; [9]
  Plant response rating, Blackgrass: 0
blackgrass
  Blackgrass plant response rating: 10
blackgrass; [10]
  Plant response rating, Blackgrass: 50
Large crabgrass; [4]
  Plant response rating, Large crabgrass: 0
Large crabgrass; [5]
  Plant response rating, Large crabgrass: 100
Large crabgrass; [6]
  Plant response rating, Large crabgrass: 100
Large crabgrass; [7]
  Plant response rating, Large crabgrass: 100
Large crabgrass; Rate 250 g/ha
  Plant response rating, Large crabgrass: 100
Purple nutsedge; [4]
  Plant response rating, Purple nutsedge: 0
Purple nutsedge; [5]
  Plant response rating, Purple nutsedge: 0
Purple nutsedge; [6]
  Purple nutsedge plant response rating: 0
Purple nutsedge; [7]
  Purple nutsedge plant response rating: 0
Purple nutsedge; Rate 250 g/ha
  Plant response rating, Purple nutsedge: 100
Spring barley [2]; Rate 62 g/ha
  Plant response rating, Spring Barley: 5
Spring barley [2]; [9]
  Plant response rating, Spring Barley: 20
Spring barley [2]
  Spring Barley plant response rating: 20
Spring barley [2]; [10]
  Plant response rating, Spring Barley: 20
Green foxtail
  Plant response rating, Green foxtail: 100
sunflower; [3]
  Plant response rating, Sunflower: 55
sunflower
  Sunflower plant response rating (0 to 100 scale): 70
sunflower; [8]
  Plant response rating, Sunflower: 60
guineagrass; [4]
  Plant response rating, Guineagrass: 0
guineagrass; [5]
  Plant response rating, Guineagrass: 100
guineagrass; [6]
  Guineagrass plant response rating: 80
  Plant response rating, Guineagrass: 0
guineagrass; [7]
  Plant response rating, Guineagrass: 100
guineagrass; Rate 250 g/ha
  Plant response rating, Guineagrass: 100
soybean; Rate 140 g/ha
  Plant response rating, Soybean: 20
soybean; Rate 280 g/ha
  Plant response rating, Soybean: 25
soybean; Rate 560 g/ha
  Plant response rating, Soybean: 25
soybean; Rate 1120 g/ha
  Plant response rating, Soybean: 65
corn; Rate 140 g/ha
  Plant response rating, Corn: 0
corn; Rate 280 g/ha
  Plant response rating, Corn: 0
corn; Rate 560 g/ha
  Plant response rating, Corn: 0
corn; Rate 1120 g/ha
  Plant response rating, Corn: 20
galium; [3]
  Plant response rating, Galium: 0
galium
  Galium plant response rating (0 to 100 scale): 100
galium; [8]
  Plant response rating, Galium: 100
rape; [3]
  Plant response rating, Rape: 50
rape
  Rape plant response rating (0 to 100 scale): 60
rape; [8]
  Plant response rating, Rape: 85
